Results as given in PubChem BioAssay AID2740 (NMMLSC, 2010).
Activity calls are given as the source filed them.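 The calls were made as follows: active = compounds whose fitted half-maximal concentration for changing the GFP signal is at or below a set limit; inactive = the rest.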

Assay: TOR pathway RPL19A-GFP modulators, concentration series – cell-based, S. cerevisiae, flow cytometry, MLPCN hits, dose response (AID 2740);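 also: background is signal of the same compound in parental non-GFP s288c yeast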
Settings: S. cerevisiae RPL19A-GFP strain, flow cytometry fluorescence, 3 h; at 33 µM (top of the series)

SMILES	GFP fluorescence, lower = active (kMESF (background-subtracted))
O=C(Nc1ccc(N2CCOCC2)cc1)C1CCN(S(=O)(=O)c2ccc3c(c2)OCCO3)CC1	34.9 (inactive)
O/C=c1\ccc2cccc3nc(C(F)(F)F)nc1c23	53.9 (inactive)
Cc1cccc(C(=O)NC(=S)NNC(=O)Cc2ccccc2)c1	52.4 (inactive)
O=C(O)c1ccn2c(C(=O)c3ccccc3)c(-c3ccccc3)cc2c1	39.3 (inactive)
Cc1cc(=O)n2c3c(sc2n1)C(=O)N(Cc1ccccc1)C3=O	42.5 (inactive)
N#C/C(=C\c1cc(Br)ccc1F)C(=O)NC1CC1	24.2 (inactive)
O=C(Oc1oc(-c2ccco2)nc1C=Nc1ccccc1)c1ccoc1	46.5 (inactive)
CC(=O)NN1C(=O)/C(=C/c2ccc(Br)o2)SC1=S	40.5 (inactive)
Oc1ccc(N=Nc2ccccc2)o1	42.3 (inactive)
O=C(Nc1ccc(NC(=O)c2cc3ccccc3o2)cc1)c1ccco1	39.7 (inactive)
Cc1ccc2c(nc3s/c(=C\c4ccc(-c5ccccc5C(=O)O)o4)c(=O)n32)c1C	53.5 (inactive)
O=C1ON=C(c2ccccc2)/C1=C\c1ccco1	28.9 (inactive)
Cc1cccc(C(=O)NNC(=S)NC(=O)c2ccccc2)c1	48.3 (inactive)
CC(=O)CSc1ncnc2c1cnn2-c1ccccc1	37.7 (inactive)
CCOC(=O)CSC1=NC(=O)/C(=C/c2ccc(Br)cc2)S1	38.5 (inactive)
CCOc1cc(C=C2C(=O)c3ccccc3C2=O)ccc1OCC(=O)Nc1ccc(C)cc1	43.8 (inactive)
Cc1ccc(C2=NN(S(C)(=O)=O)C(c3ccc4c(c3)OCO4)C2)cc1 (stereo not drawn)	44.8 (inactive)
O=S(=O)(/N=C(/Sc1ccccc1)c1ccccc1)c1ccccc1	34.5 (inactive)
c1ccc(-c2csc(Nc3cccnc3)n2)nc1	36.5 (inactive)
O=C(Nc1nc2ccc(F)cc2s1)c1ccccn1	48.2 (inactive)

SMILES	GFP fluorescence, lower = active (kMESF (background-subtracted))
COc1ccc(C2(C)ON(c3ccccc3C(F)(F)F)C2=O)cc1 (stereo not drawn)	34.3 (inactive)
O=C(O)c1ccc2c(c1)C(=O)/C(=C/c1ccccc1)C2=O	36.8 (inactive)
CC(C)[C@@]1(c2ccccc2)ON(c2ccccc2C(F)(F)F)C1=O	40.1 (inactive)
COc1ccc(/C=C2/C(=O)ON=C2c2ccccc2)cc1OC	39.5 (inactive)
O=C1C2C3C=CC(CO)(O3)C2C(=O)N1c1ccccc1-c1ccccc1 (stereo not drawn)	20.9 (inactive)
Cc1c(Br)c(=O)oc2c(Br)c(O)c(O)cc12	38.1 (inactive)
Cc1cc(Br)c2c(c1)/C(=C/C(=O)c1cccs1)C(=O)N2	40.3 (inactive)
Oc1c(Br)cc(Br)cc1C=Nc1ccc2c(c1)OCO2	40 (inactive)
O=C1ON=C(c2ccccc2)/C1=C/c1ccc(-c2ccccc2[N+](=O)[O-])o1	25.3 (inactive)
CC(C)[C@]1(c2ccc(Cl)cc2)ON(c2ccccc2C(F)(F)F)C1=O	40.6 (inactive)
C/C(=N/NC(=O)c1ccc(C(C)(C)C)cc1)c1ccccn1	45.9 (inactive)
COc1cccc(/C=N/Nc2ncc(C(F)(F)F)cc2Cl)c1O	38.7 (inactive)
Cc1cc(C)nc(S/C=C/C(=O)c2ccccc2)n1	47.4 (inactive)
Cc1cccc(N=Nc2ccc(O)c3ncccc23)c1	33.3 (inactive)
Cc1ccsc1/C=N/Nc1ncc(Cl)cc1Cl	49.1 (inactive)
COc1ccc(/C=C2\C(=O)ON=C2c2ccccc2)cc1	24.9 (inactive)
O=C(Oc1oc(-c2ccco2)nc1C=Nc1ccc(Cl)cc1)c1ccco1	52.3 (inactive)
Cc1ccc(O)c(N=Nc2nccs2)c1	32.1 (inactive)
Cc1ccccc1[C@]1(C)ON(c2ccccc2C(F)(F)F)C1=O	42.8 (inactive)
O=C(Nc1cccc(-c2csc(Nc3ccccc3)n2)c1)c1ccccc1	33.7 (inactive)

SMILES	GFP fluorescence, lower = active (kMESF (background-subtracted))
CC(=O)OC[C@]12CC[C@H]3[C@@](C)(CC[C@H]4C(C)(C)CCC[C@]34C)[C@@H]1C[C@H](C1=CC(=O)O[C@@H]1OC(C)=O)O2	18.7 (inactive)
CCc1cccc2sc(N3CCN(C(=O)c4ccc([N+](=O)[O-])o4)CC3)nc12	11.8 (inactive)
N#Cc1c2ccc([N+](=O)[O-])cc2[n+]([O-])n1-c1ccccc1	51.8 (inactive)
O=C1C(Cl)=C(N2CCN(Cc3ccccc3)CC2)C(=O)N1c1ccccc1	40.2 (inactive)
Cc1ccc(S(=O)(=O)N2CC(C(=O)O)=CC[C@H]2c2ccc(Cl)cc2)cc1	37.3 (inactive)
COc1cc(NC(=O)c2ccccc2[N+](=O)[O-])ccc1NC(=O)c1cc2ccccc2o1	39.2 (inactive)
COc1ccc(CCNC2=C(Cl)C(=O)N(CCc3ccc(OC)c(OC)c3)C2=O)cc1OC	42.6 (inactive)
Cc1ccc(/C=N/Nc2ncc(Cl)cc2Cl)s1	43.1 (inactive)
CC(=O)Oc1oc(-c2ccccc2)nc1C=Nc1ccc(N(C)C)cc1	41.6 (inactive)
Cc1cc(S(=O)(=O)ON2C(=O)c3ccccc3C2=O)ccc1F	43.3 (inactive)
COc1ccc2c(c1)c(/C=C/c1cc[n+](C)cc1)cn2C	40 (inactive)
COc1cccc(/C=C2\C(=O)N(c3cccc(C)c3)C(=O)c3ccccc32)c1	42.4 (inactive)
Cc1ccccc1OCCOC(=O)c1ccc(S(=O)(=O)N2CCCC2)cc1	43.3 (inactive)
CN(C)C(=O)Oc1ccnc2cc(Cl)ccc12	38.2 (inactive)
[O-][n+]1cccc2c(Br)cc(Br)c(O)c21	42.9 (inactive)
O=C1N(c2ccccc2C(F)(F)F)O[C@]1(c1ccccc1)C1CCCC1	36.6 (inactive)
O=C(COc1ccccc1)N1CCN(c2ncnc3c2cnn3-c2ccccc2)CC1	37.1 (inactive)
N/C(Cc1ccc(Cl)cc1Cl)=N\OC(=O)c1ccccc1	28.6 (inactive)
